Assay results reported in patent US5232922A, “Imidazole compounds, processes for their preparation, pharmaceuticals based on these compounds and some intermediates” (priority 1990, dated 1993).

What was measured:
laser-induced thrombosis [1] = assay: Inhibition of laser-induced thrombosis in atherosclerotic rabbits; type: in vivo, rabbit (atherosclerotic); details: 30 mg/kg daily for 14 days
laser-induced thrombosis [2] = assay: Inhibition of laser-induced thrombosis in hyperlipidemic, spontaneously hypertensive, stroke-prone rats; type: in vivo, rat (hyperlipidemic hypertensive)
acutely ischemic muscle = assay: Contractility in the acutely ischemic muscle; type: in vivo
Experimental: The contractility in the acutely ischemic muscle was measured in a similar experimental procedure, as described under 1). The muscle, initially normally supplied with blood, was made to contract isometrically by direct electrical stimulation (1.2 Hz, 2.5 mA). The right femoral artery was then occluded for 5 min by means of a clamp. […] The vessel was then reopened and the starting contractility before the first occlusion was attained. During the second occlusion which then followed, the preparations to be tested were administered intravenously in aqueous solution via the jugular vein. 4-8 animals were employed per preparation and dose. The decrease in the contractility during occlusion with and without substance administration was compared and the percentage change was used to evaluate the substance activity. The substances according to the invention, for example the compound of Example 7, were also remarkable in this test for outstanding effects.

[3] = tested on: photochemically-induced thrombosis in mesenterial arterioles; assay: Inhibition of photochemically-induced thrombosis in mesenterial arterioles; type: in vivo, rat
Experimental: In this model, rats were anesthetized as described above under 2). The investigations were carried out on mesenterial arterioles having a diameter of 11 to 50 lm. A thrombosis was induced in a modification in accordance with a method known from the literature (Herrmann, K. H. Microvasc. Res. 26, 238-249, 1983) and is based on the photochemical release of singlet oxygen, which leads locally to an endothelial lesion. The animals to be investigated received an intravenous injection of 0.3 ml of a 10% strength solution of fluorescein in isothiocyanate--Dextran 70 (FITC--Dextran 70 s, Sigma, Munich). The arterole was looked for under the microscope and centered in the observation field. The FITC--Dextran in the blood vessel was then excited using a special lamp and filter device (excitation 490 nm, emission 510 nm). For evaluation of thrombus formation, the time was taken which extended from the point of excitation to the formation of a first thrombus on the wall. 5 vessels in each animal were examined in this manner.

[4] = tested on: laser-induced thrombosis in mesenterial arterioles; assay: Inhibition of laser-induced thrombosis in mesenterial arterioles of the rat; type: in vivo, rat (female Sprague-Dawley); details: Rattus norvegicus, po; 10 mg/kg p.o.; read-out: Percentage change vs control (inhibition of laser-induced thrombosis)
[5] = Acute toxicity (LD50 range); details: mouse, in vivo, iv, single administration, NMRI mice, 7 days
Experimental: The determination of the LD50 ranges was carried out in standard fashion by means of the mortality occurring in the course of 7 days in NMRI mice after single intravenous (i.v.) or intraperitoneal (i.p.) administration (NMRI=NIH Medical Research Institute).

[6] = tested on: capillary bed of the skeletal muscle of the rat; assay: Laser-Doppler flow measurement of erythrocyte flux in acutely ischemic skeletal muscle; type: in vivo, rat (male Wistar); details: during occlusion
Experimental: Using laser-Doppler flow measurements (LDF), the erythrocyte flux (the number of cells flowing past under the laser beam x their velocity) can be measured in a noninvasive and continuous manner in the capillary bed of the skeletal muscle of the rat (perimed PF2 laser-Doppler flowmeter, Perimed, Sweden). […] The apparatus was set as follows: 12 kHz, gain 10, time constant 1.5 sec, 37° C. The right femoral artery of male Wistar rats having a body weight of 380-430 g was exposed and the skin and the connective tissue was dissected away over a small muscle area (anterior tibia). The probe was placed about 1 mm above this area. […] At this point, the test substances were infused intravenously in aqueous solution (0.03 and 0.6 mg/kg/min). The maximum percentage increase in the erythrocyte flux after administration of substance during the occlusion (see also Okyayuz-Baklouti, I., European J. of Pharmacology, 166: 75-86, 1989) was used as the measuring parameter for the substance activity. […] 3-7 animals were employed per preparation and dose.

[7] = tested on: skeletal muscle of the rat (chronic ischemic); assay: Effect on the contractility of the skeletal muscle after chronic ischemia (tiring index); type: in vivo, rat (male Wistar); details: 6 mg/kg p.o. over 7 days, n = 4-6; for TI of ischemic treated muscle: tiring index = maximum contractility / residual force after 5 min stimulation; for change in vivo at 6 mg/kg: Rattus norvegicus, po, 168 h, smaller value = more effective, read-out: Percentage change (TI of ischemic treated muscle vs TI of normal non-treated muscle)
Text: 1) Effect on the Contractility of the Skeletal Muscle After Chronic Ischemia
In recent years, a marked change has taken place in ideas about the pathophysiology of chronic peripheral arterial occlusive disease as scientific interest has to an increasing extent shifted from the macrocirculation to the microcirculation. Disturbances in the microcirculation therefore manifest themselves in an undersupply of substrates with tissue ischemia resulting therefrom which, in turn, leads to an impairment in the function of the extremity concerned. The logical consequence of this is that the target organ skeletal muscle comes more and more into the forefront. […] The clinical activity is in fact also consistently determined in humans with the aid of the painless walking distance on the moving walkway.
Male Wistar rats having a body weight of 380 to 410 g were used as experimental animals. Under hexobarbital anesthesia (®Evipan--sodium, 200 mg/kg BW (=body weight) i.p.), a unilateral ligature of the right femoral artery was applied to the animals in the groin. After sprinkling penicillin sulfonamide powder for antibiotic wound care, the small operation wound was closed and the animals were continuously observed until they were completely awake. One week later, the administration of substance began by oral administration using a stomach tube (6 mg/kg BW, carboxymethylcellulose-sodium suspension) and was continued for 7 days (single administration per day, about 7h30 to 8h30). The contractility was measured 24 h after the last administration of substance in order to exclude acute effects, to be precise by the following experimental protocol:
Superfusion with physiological saline solution (37° C.) was used to avoid drying out and cooling. The mean arterial blood pressure was recorded continuously via Statham (=blood pressure measuring device) by means of a cannulated caroted artery to control the physiological status of the animals during the experiment. All animals breathed spontaneously by means of an inserted tracheal tube.
After these preparations, the muscle was made to contract (Stimulator I, Hugo Sachs, Federal Republic of Germany) by direct electrical stimulation (2.5 mA, 2 Hz). The absolute contractility in grams at various times of stimulation was used as the measured parameter. […] If the maximum contractility at the start of stimulation is now divided by the residual force remaining after 5 minutes' tiring stimulation, a "tiring index TI" for the muscle concerned can be calculated; the ability to tire here is larger the larger TI is numerically.
4 to 6 individual experiments were carried out for each test preparation.

SMILES | inhibition of laser-induced thrombosis (laser-induced thrombosis [1]) | inhibition of laser-induced thrombosis (laser-induced thrombosis [2]; 10 mg/kg daily for 7 days) | inhibition of laser-induced thrombosis (laser-induced thrombosis [2]; 30 mg/kg daily for 7 days) | improvement of contractility in the acutely ischemic muscle (acutely ischemic muscle; 0.03 mg/kg/min i.v.) | improvement of contractility in the acutely ischemic muscle (acutely ischemic muscle; 0.3 mg/kg/min i.v.) | inhibition of photochemically-induced thrombosis ([3]; 1 mg/kg p.o.) | inhibition of photochemically-induced thrombosis ([3]; 3 mg/kg i.v.) | inhibition of photochemically-induced thrombosis ([3]; 3 mg/kg p.o.) | inhibition of photochemically-induced thrombosis ([3]; 10 mg/kg i.v.) | inhibition of photochemically-induced thrombosis ([3]; 10 mg/kg p.o.) | inhibition of photochemically-induced thrombosis (in words) ([3]; rat, in vivo) | inhibition in vivo at 10 mg/kg [4] | LD50 at 168 h [5] | maximum percentage increase in the erythrocyte flux ([6]; 0.03 mg/kg/min i.v. infusion) | maximum percentage increase in the erythrocyte flux ([6]; 0.6 mg/kg/min i.v. infusion) | TI of ischemic treated muscle [7] | change in vivo at 6 mg/kg [7] | activity in acute ischemic muscle contractility test (in words) (acutely ischemic muscle; i.v.)
Cn1cnc(S(=O)(=O)NCCCN2CCOCC2)c1 [Example 7, N-(3-Morpholinopropyl)-1-methyl-4-imidazolesulfonamide] | 36% | 18% | 32% | +17.2% | +25.2% | 69% | 36% | 75% | 56% | 130% | inhibited in a dose-dependent and statistically significant manner | 36% | > 100 mg/kg | +53.3% | +80.6% | 2.79 | 0.3% | 
CC(=O)CCCCn1c(=O)c2c(ncn2C)n(C)c1=O [Pentoxyfylline, 1-(5-oxohexyl)-3,7-dimethylxanthine, reference compound] |  |  |  |  |  | 29% | 3% | 18% | 38% | 68% |  |  |  | 24.6% | 33.1% | 3.20 | 43.5% | only showed marginal activity
